The values that follow come from patent US20210196674A1, “Therapeutics for Malaria” (priority 2015, published 2021).

Where two headings read alike, the source gives them in different places.

The conditions of series [1]: in vivo, cited from earlier work; for half-life in the blood: po.
The subject of a further series is Staphylococcus aureus. Conditions: cited from earlier work; for growth inhibitory action: alone; for effect with berberine against Staphylococcus aureus: combination with berberine, attributed to inhibition of MDR pump.
The test system of the next series is Plasmodium berghei. Conditions: curcumin orally 100 mg/kg in combination with Artemisinin at 0.75 and 1.5 mg/mouse; cited from earlier work.
The conditions of series [2]: lambs; cited from earlier work.
In series [3] the test system is malaria (P. falciparum) infection. In words: Clinical trials in Haiti: 16-day low-dose Artemisinin with or without Citrus bioflavonoid. The series is classed as in vivo, human. The following applies: single 16-day treatment; daily Artemisinin: babies 25 mg, children 2-12 years 50 mg, adults 100 mg; n=17.
Protocol: In one example, patients in Haiti with non-complicated and complicated malaria (P. falciparum) infection were recruited to test the efficacy of peroxybioflavonoid treatment. The treated patient population included infants (n=7), children under age 18 (n>100), and adults (n>75).
Each day, babies were given 25 mg, children 2-12 years old received 50 mg and adults 100 mg of Artemisinin (low-dose Artemisinin). In some patients, Artemisinin was given alone. In other patients, the Artemisinin was combined with Citrus bioflavonoid (peroxybioflavonoid). Patients were treated for 16 days.
The conditions of series [4]: after consumption of 200 mg of naringenin, present in grapefruit juice; cited from earlier work.
For another series, the system named is Plasmodium falciparum. Conditions: cited from earlier work; for antimalarial effect: alone, catechins from a crude green tea extract; for effect on Artemisinin activity in vitro: combination with Artemisinin.

`CCO[C@H]1O[C@@H]2O[C@@]3(C)CC[C@H]4[C@H](C)CC[C@@H]([C@H]1C)[C@@]24OO3` [arteether]: the half-life in series [1] (im) is 7 to 9 h. In series [1], the “half-life in the blood” value was 1 to 2 h.

In the case of `COc1cc2oc(-c3ccc(O)c(O)c3)c(OC)c(=O)c2c(O)c1OC` [chrysosplenol-D], in the series on Staphylococcus aureus, the growth inhibitory action result is “very weak” and the “effect with berberine against Staphylococcus aureus” value is reported as “synergistic effect”.

On to `COc1cc(/C=C/C(=O)CC(=O)/C=C/c2ccc(O)c(OC)c2)ccc1O` [curcumin], for which, in the series with Plasmodium berghei, the “survival rate of infected mice” value is “increased survival rate”.

Regarding `O=c1c(O)c(-c2ccc(O)c(O)c2)oc2cc(O)cc(O)c12` [quercetin], the bioavailability of moxidectin entry in series [2] is reported as “increase the bioavailability”.

On to `C[C@@H]1CC[C@H]2[C@@H](C)C(=O)O[C@@H]3O[C@@]4(C)CC[C@@H]1[C@]32OO4` [Artemisinin], for which, in series [3], the “remained free of malaria post-treatment” value was “up to nine”. Further, in series [1], the half-life entry is recorded as “very short”.

Take `O=C1C[C@@H](c2ccc(O)cc2)Oc2cc(O)cc(O)c21` [naringenin]: the plasma concentrations in series [4] is not above 6.0 µM.

With `C[C@H]1[C@H](OC(=O)CCC(=O)O)O[C@@H]2O[C@@]3(C)CC[C@H]4[C@H](C)CC[C@@H]1[C@@]24OO3` [artesunate], in series [1] (im), the half-life is 7 to 9 h. In addition, in series [1], the “half-life in the blood” value was 1 to 2 h.

Turning to `COc1cc(-c2oc3cc(OC)c(OC)c(O)c3c(=O)c2OC)ccc1O` [chrysoplenetin], in the series with Staphylococcus aureus, the growth inhibitory action entry is recorded as “very weak” and the “effect with berberine against Staphylococcus aureus” value was “synergistic effect”.

With catechin gallate, in the series on Plasmodium falciparum, the antimalarial effect result was “antimalarial effects of their own” and the “effect on Artemisinin activity in vitro” value was “potentiate the effects of Artemisinin”.

Regarding `O=C(O[C@@H]1Cc2c(O)cc(O)cc2O[C@@H]1c1cc(O)c(O)c(O)c1)c1cc(O)c(O)c(O)c1` [epigallocatechin gallate], in the series on Plasmodium falciparum, the antimalarial effect result is recorded as “antimalarial effects of their own” and the “effect on Artemisinin activity in vitro” value is reported as “potentiate the effects of Artemisinin”.

Usually half-life stands for how long it takes for the measured level to halve.
